In brackets after ≈: the same amount, converted by molar mass.
System: Mycobacterium tuberculosis
Assay: Antitubercular activity against Mycobacterium tuberculosis H37Rv after 7 days by resazurin microtiter assay
Format: functional
Settings: 168 h

Row | SMILES | MIC [µg/mL]
1 | CCCCCCCC/C=C\CCCCCCCC(=O)N1CCCCC1 | 50 (≈ 143 µM)
2 | CCCCCCCC/C=C\CCCCCCCC(=O)N1CCOCC1 | 25 (≈ 71.1 µM)
3 | CCCCCC[C@@H](O)C/C=C\CCCCCCCC(=O)NCc1ccccc1 | 25 (≈ 64.5 µM)
4 | CCCCCC[C@@H](O)C/C=C\CCCCCCCC(=O)N[C@H](C)c1ccccc1 | 100 (≈ 249 µM)
5 | CCCCCC[C@@H](O)C/C=C\CCCCCCCC(=O)N[C@@H](C)c1ccccc1 | 100 (≈ 249 µM)
6 | CCCCCC[C@@H](O)C/C=C\CCCCCCCC(=O)N1CCCC1 | 12.5 (≈ 35.6 µM)
7 | CCCCCC[C@@H](O)C/C=C\CCCCCCCC(=O)N1CCOCC1 | 50 (≈ 136 µM)
8 | CCCCC/C=C\C/C=C\CCCCCCCC(=O)N[C@H](C)c1ccccc1 | 100 (≈ 261 µM)
9 | CCCCC/C=C\C/C=C\CCCCCCCC(=O)N[C@@H](C)c1ccccc1 | 50 (≈ 130 µM)
10 | CCCCC/C=C\C/C=C\CCCCCCCC(=O)N1CCCC1 | 12.5 (≈ 37.5 µM)
11 | CCCCCCCCCCCCCCCC(=O)N[C@H](C)c1ccccc1 | > 100
12 | CCCCCCCCCCCCCCCC(=O)N[C@@H](C)c1ccccc1 | > 100
13 | CCCCCCCCCCCCCCCC(=O)N1CCCC1 | 25 (≈ 80.8 µM)
14 | CCCCCCCCCCCCCCCC(=O)N1CCCCC1 | 25 (≈ 77.3 µM)
15 | CCCCCCCCCCCCCCCCCC(=O)N[C@H](C)c1ccccc1 | > 100
16 | CCCCCCCCCCCCCCCCCC(=O)N[C@@H](C)c1ccccc1 | > 100
17 | CCCCCCCC/C=C\CCCCCCCC(=O)N1CCCC1 | 25 (≈ 74.5 µM)
18 | CCCCCCCC/C=C\CCCCCCCC(=O)NCCO [OLEOYLETHANOLAMIDE] | 25 (≈ 76.8 µM)
19 | CCCCCCCCCCCCCCCC(=O)NCCO [PALMIDROL] | > 100

Source: ChEMBL document CHEMBL1221262, “Synthesis and antituberculosis activity of new fatty acid amides” (2010)
